The source of these data is patent US20100048498A1, “STABLE NON-DIHYDRATE AZITHROMYCIN ORAL SUSPENSIONS” (priority 2004, published 2010).

What all share (format): physicochemical
Data set [1] can be described thus: Effects of flavoring components upon azithromycin form F conversion in constituted POS. To be noted: room temperature. The text has this: POS formulation II was constituted with water and stored identically to serve as a control for this experiment.
A short description of data set [2]: Effect of cyclodextrins on non-dihydrate azithromycin form conversion in constituted POS formulation II. To be noted: for % Form A: 18 mls water. The method, then:
The effect of adding a complexing agent such as cyclodextrin on the stability of non-dihydrate azithromycin forms G, M and F against conversion in a constituted POS formulation were evaluated.
Forms G, M and F of azithromycin were formulated into POS formulation II. Various cyclodextrins were added to the POS formulation II and the resulting samples were constituted with 18 mls of water. The suspensions were then stored for 24 hours at room temperature. At the end of the storage time, the suspensions were filtered and the recovered solids were weighed and analyzed by SS-NMR to quantify the presence of azithromycin dihydrate (form A). The control samples were formulated into formulation II with non-dihydrate azithromycin form G, M and F without cyclodextrins and were constituted with water, stored, filtered and analyzed identically to the cyclodextrin samples described above. A control, which had no cyclodextrin was run with each series of experiments. The SS-NMR data are presented in Tables 10, 11, 12 and the results are given as weight percent (% wt), of the recovered azithromycin sample.

The nature of data set [3]: Stability of non-dihydrate azithromycin in suspension (POS formulation II or bulk drug in water); SS-NMR quantification of form A.
Description: The stability of various forms of non-dihydrate azithromycin, in water and in flavored oral suspensions, was evaluated. Specifically, non-dihydrate azithromycin forms G, M, N, F and J were separately used in POS formulation II. These POS formulations were constituted by mixing with 18 mls of water. The suspensions were then stored for 1, 5 and 10 days at either 5° C. or 30° C. Suspensions of bulk azithromycin forms G, M, N, F and J were also constituted with 18 mls of water and stored under the same conditions.
Upon conclusion of the storage time period the suspensions were filtered and suspended solids collected as described previously.
[4] abbreviates: POS Formulation II + Hydroxypropyl β-cyclodextrin 11.1 % w/w, 24 hours room temperature (Tables 11, 12).
Setting [5] is: POS Formulation II, no cyclodextrin (Control), 24 hours room temperature (Tables 11, 12).
[6] abbreviates: Bulk Drug in 18 mls water, 5° C., Day 1.
Where [7] appears, read: Bulk Drug in 18 mls water, 5° C., Day 10.
Setting [8] is: Bulk Drug in 18 mls water, 30° C., Day 1.
The mark [9] stands for this setting: Bulk Drug in 18 mls water, 30° C., Day 10.
Setting [10] is: Formulation II constituted with 18 mls water, 5° C., Day 1.
Where [11] appears, read: Formulation II constituted with 18 mls water, 5° C., Day 10.
The mark [12] stands for this setting: Formulation II constituted with 18 mls water, 30° C., Day 1.
The mark [13] stands for this setting: Formulation II constituted with 18 mls water, 30° C., Day 10.

SMILES strings stand for the structures.

Regarding `CCC1OC(=O)C(C)C(O[C@H]2C[C@@](C)(OC)[C@@H](O)C(C)O2)C(C)[C@@H](OC2OC(C)CC(N(C)C)[C@H]2O)[C@@](C)(O)C[C@@H](C)CN(C)[C@H](C)[C@@H](O)[C@]1(C)O` (some centres unmarked) [Form F, azithromycin monohydrate hemi-ethanol solvate], the “% F (SS-NMR Evaluation after 24 hrs constitution)” value in data set [1] (Formulation I constituted with 18 mL 0.0577 mg/ml benzaldehyde), in data set [1] (Formulation I constituted with 18 mL 0.922 mg/ml 3-methyl-butyl acetate + 0.0577 mg/ml benzaldehyde), in data set [1] (Formulation I constituted with 18 mL 0.922 mg/ml 3-methyl-butyl acetate), in data set [1] (Formulation I constituted with 18 mL 1.666 mg/ml 3-methyl-butyl acetate) and in data set [1] (Formulation II constituted with 18 mL Water) was 0% throughout. Also, the “% Form A” value in data set [2] (setting [4]) is given as 0.0%; in data set [2] (POS Formulation II + Sulfobutylether β-cyclodextrin 11.1 % w/w, 24 hours room temperature (Table 11)) it was 0.0%; in data set [2] (POS Formulation II + α-cyclodextrin 1.2 % w/w, 24 hours room temperature (Table 11)) it was 0.0%; in data set [2] (setting [5]), 74.6%. Moreover, the “conversion to form A” value in data set [2] (POS Formulation II when cyclodextrins were present, 24 hours room temperature) is on record as “no conversion”. The “% A (azithromycin dihydrate, form A, of recovered azithromycin)” value is 0% in data set [3] (setting [6]); 0% in data set [3] (setting [7]); 0% in data set [3] (setting [8]); 0% in data set [3] (setting [9]); 6% in data set [3] (setting [10]); 27% in data set [3] (setting [11]). Also, the figures for the “% A (azithromycin dihydrate, form A, of recovered azithromycin)” value in data set [3] (setting [12]) and in data set [3] (setting [13]) were 19% and 31%, respectively.

On to `CCC1OC(=O)C(C)C(O[C@H]2C[C@@](C)(OC)[C@@H](O)C(C)O2)C(C)[C@@H](OC2OC(C)CC(N(C)C)[C@H]2O)[C@@](C)(O)C[C@@H](C)CN(C)[C@H](C)[C@@H](O)[C@]1(C)O` (some centres unmarked) [Form J, azithromycin monohydrate hemi-n-propanol solvate], for which the “% A (azithromycin dihydrate, form A, of recovered azithromycin)” value in data set [3] (setting [6]), in data set [3] (setting [7]), in data set [3] (setting [8]), in data set [3] (setting [9]), in data set [3] (setting [10]) and in data set [3] (setting [11]) was 0% throughout. Moreover, the “% A (azithromycin dihydrate, form A, of recovered azithromycin)” value in data set [3] (setting [12]) and in data set [3] (setting [13]) was 0% each time.

Regarding `CCC1OC(=O)C(C)C(O[C@H]2C[C@@](C)(OC)[C@@H](O)C(C)O2)C(C)[C@@H](OC2OC(C)CC(N(C)C)[C@H]2O)[C@@](C)(O)C[C@@H](C)CN(C)[C@H](C)[C@@H](O)[C@]1(C)O` (some centres unmarked) [Form M, azithromycin monohydrate hemi-isopropanol solvate], the “% Form A” value in data set [2] (setting [4]) is listed as 0.0%; in data set [2] (POS Formulation II + Hydroxypropyl β-cyclodextrin 11.1 % w/w, 24 hours room temperature (Tables 11, 12), listed as form M), “no conversion”; in data set [2] (POS Formulation II + β-cyclodextrin 1.2 % w/w, 24 hours room temperature (Table 12)) it was 0.9%; in data set [2] (POS Formulation II + β-cyclodextrin 1.2 % w/w, 24 hours room temperature (Table 12), listed as form M), “very small amount of conversion”; in data set [2] (POS Formulation II + γ-cyclodextrin 1.2 % w/w, 24 hours room temperature (Table 12)), 29.9%; in data set [2] (setting [5]), 71.6%. In addition, the “% A (azithromycin dihydrate, form A, of recovered azithromycin)” value was 0% in data set [3] (setting [6]); 0% in data set [3] (Bulk Drug in 18 mls water, 5° C., Day 5); 0% in data set [3] (setting [7]); 0% in data set [3] (setting [8]); 0% in data set [3] (Bulk Drug in 18 mls water, 30° C., Day 5); 0% in data set [3] (setting [9]). The “% A (azithromycin dihydrate, form A, of recovered azithromycin)” value in data set [3] (setting [10]) turned out to be 23%; in data set [3] (Formulation II constituted with 18 mls water, 5° C., Day 5) it was 38%; in data set [3] (setting [11]), 40%; in data set [3] (setting [12]) it was 28%; in data set [3] (Formulation II constituted with 18 mls water, 30° C., Day 5), 36%; in data set [3] (setting [13]) it was 62%.
